Key:
[1] = test system: MCF-7 (ER+) human breast cancer cells; assay: MCF-7 cell proliferation (cell number); format: cell-based
Description: An aliquot of the GCCB crude extract was fractionated on a Spice C18 Cartridge (a reverse phase column using aliphatic groups attached to a matrix to form a hydrophobic adsorbent. Rainin Instruments Company). Briefly, a GCCB extract in 20% methanol in water was loaded onto a spice cartridge and the pass through (20% methanol) fraction was collected. The column was sequentially eluted with a solution of water comprising 40%, 60%, and 80% methanol in water. The final elution was with 100% methanol. Each fraction, including the pass through fraction, was collected and dried at 50° C. under nitrogen to remove methanol. The eluate was re-dissolved in 100% ethanol. […] Six days following treatment, cell number was determined by hemocytometer counts and results are expressed as cell number in treated wells relative to ethanol controls (100%) as described (B. M. Markaverich et al., J. Steroid Biochem. 29:71-78, 1988; B. M. Markaverich et al., Cancer Res. 50: 1470-1478, 1990; B. M. Markaverich et al., JBC 263: 7203-7210, 1988; B. M. Markaverich et al., Internat. J. Oncol. 4:1291-1300, 1994).
In a further study, the effects of fractionated GCCB extract on the proliferation of the MCF-7 and MDA-231 human breast cancer cells were analyzed. […] Six days following treatment, cell number (% Control) was determined. […]
Cell number was determined 6 days following treatment. […]

[2] = target: T1, estrogen receptor (Rattus norvegicus, UniProt P06211); assay: [3H]estradiol binding to estrogen receptor in rat uterine cytosol; conditions: 10 nM [3H]estradiol, extracts rediluted 1:1000, 1-50 μl
T1 sequence (P06211 1-600): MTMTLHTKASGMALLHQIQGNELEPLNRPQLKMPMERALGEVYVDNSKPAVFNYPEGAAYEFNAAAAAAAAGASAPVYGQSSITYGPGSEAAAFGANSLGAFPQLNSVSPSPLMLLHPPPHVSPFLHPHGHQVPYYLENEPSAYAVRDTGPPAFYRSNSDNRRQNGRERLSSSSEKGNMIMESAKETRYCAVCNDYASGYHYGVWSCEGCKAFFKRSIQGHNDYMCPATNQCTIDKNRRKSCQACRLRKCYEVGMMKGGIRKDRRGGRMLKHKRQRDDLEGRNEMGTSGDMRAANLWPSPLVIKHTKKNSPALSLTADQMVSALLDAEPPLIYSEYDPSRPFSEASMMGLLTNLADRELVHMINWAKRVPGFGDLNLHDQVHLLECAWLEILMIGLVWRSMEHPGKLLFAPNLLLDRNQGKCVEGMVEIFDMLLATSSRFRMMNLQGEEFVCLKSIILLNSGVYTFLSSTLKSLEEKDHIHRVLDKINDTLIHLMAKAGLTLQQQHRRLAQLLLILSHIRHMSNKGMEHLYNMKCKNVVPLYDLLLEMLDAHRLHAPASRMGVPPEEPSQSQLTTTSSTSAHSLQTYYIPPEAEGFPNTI

Row | Compound | inhibition of MCF-7 proliferation by antiestrogen alone ([1]; 10 nM, in the absence of estrogen, 6 days) | inhibition at 0.01 µM ([1]; Homo sapiens, MCF7, 144 h, read-out: block of the estradiol-induced stimulation of MCF-7 cell proliferation) [%] | competition for [3H]estradiol binding to estrogen receptor [2]
1 | C[C@]12CC[C@@H]3c4ccc(O)cc4C[C@@H](CCCCCCCCC[S+]([O-])CCCC(F)(F)C(F)(F)F)[C@H]3[C@@H]1CC[C@@H]2O (stereo partly drawn) [ICI-182,780] | failed to inhibit | > 50 | 
2 | O=c1c(-c2ccc(O)cc2)coc2cc(O)ccc12 [daidzein] |  |  | competitively inhibit
